Results on 15 molecules are retold here after patent publication US20260258035A1, “FIVE-MEMBERED AND SIX-MEMBERED NITROGEN-CONTAINING COMPOUND, AND INTERMEDIATE, PREPARATION METHOD AND USE THEREOF” (HANGZHOU SYNRX THERAPEUTICS BIOMEDICAL TECHNOLOGY CO., LTD., priority 2022, published 2026).

Read-outs that look alike come from different tables or passages of the source.

Test [1] deals with Human breast squamous carcinoma cells HCC1806. Description: Cell function assay (In-Cell Western, PAR/pADPr after MMS). Type of test: cell-based. Here is the method:
2. Cell Function Assay (In-Cell Western)
• 1) Human breast squamous carcinoma cells HCC1806 (ATCC) were seeded to the 384-well plate (Corning, #3764) at 20,000 cells/well, incubated for 24 h in a CO2 (5%) incubator at 37° C. to allow for complete adherence of the cells; • 2) 120 nL compounds or DMSO were added to the 384-well plate by Echo 550 (LABCYTE, #550) (final concentrations of compounds: 30000 nM, 10000 nM, 3000 nM, 1000 nM, 300 nM, 100 nM, 30 nM, 10 nM, 3 nM, 1 nM, 0 nM), and then the cells were incubated for 1 h in a CO2 (5%) incubator at 37° C.; • 3) 40 nL MMS (methyl mesylate, Sigma, #129925)(final concentration: 0.5 mM) was added to the plate by Echo 550, and the cells were treated for 1 h in a CO2 (5%) incubator at 37° C.

The next test addresses PARG (Homo sapiens, UniProt Q86W56). Kind of test: Biochemical assay (PARG, TFMU-ADPr substrate).
The subject of the next test is HCC1806. Kind of test: Cell viability assay (CellTiter-Glo). Type of test: cell-based, Human. Conditions: HCC1806, 7 days, CellTiter-Glo, read-out: IC50 (nM) in cell viability assay. In general terms: Cellular ATP, detected with luciferase, serves as a proxy for viable cell number.
[2] abbreviates: HCC1806, In-Cell Western, MMS treatment, read-out: IC50 (nM) in cell function assay.
[3] abbreviates: HCC1806, compound 1 h then 0.5 mM MMS 1 h, PAR/pADPr antibody, In-Cell Western, read-out: IC50 (nM) in cell function assay.
Setting [4] is: 4 nM PARG, 66.2 uM TFMU-ADPr, 3 min at room temperature.

Sequence of PARG (Q86W56 whole entry): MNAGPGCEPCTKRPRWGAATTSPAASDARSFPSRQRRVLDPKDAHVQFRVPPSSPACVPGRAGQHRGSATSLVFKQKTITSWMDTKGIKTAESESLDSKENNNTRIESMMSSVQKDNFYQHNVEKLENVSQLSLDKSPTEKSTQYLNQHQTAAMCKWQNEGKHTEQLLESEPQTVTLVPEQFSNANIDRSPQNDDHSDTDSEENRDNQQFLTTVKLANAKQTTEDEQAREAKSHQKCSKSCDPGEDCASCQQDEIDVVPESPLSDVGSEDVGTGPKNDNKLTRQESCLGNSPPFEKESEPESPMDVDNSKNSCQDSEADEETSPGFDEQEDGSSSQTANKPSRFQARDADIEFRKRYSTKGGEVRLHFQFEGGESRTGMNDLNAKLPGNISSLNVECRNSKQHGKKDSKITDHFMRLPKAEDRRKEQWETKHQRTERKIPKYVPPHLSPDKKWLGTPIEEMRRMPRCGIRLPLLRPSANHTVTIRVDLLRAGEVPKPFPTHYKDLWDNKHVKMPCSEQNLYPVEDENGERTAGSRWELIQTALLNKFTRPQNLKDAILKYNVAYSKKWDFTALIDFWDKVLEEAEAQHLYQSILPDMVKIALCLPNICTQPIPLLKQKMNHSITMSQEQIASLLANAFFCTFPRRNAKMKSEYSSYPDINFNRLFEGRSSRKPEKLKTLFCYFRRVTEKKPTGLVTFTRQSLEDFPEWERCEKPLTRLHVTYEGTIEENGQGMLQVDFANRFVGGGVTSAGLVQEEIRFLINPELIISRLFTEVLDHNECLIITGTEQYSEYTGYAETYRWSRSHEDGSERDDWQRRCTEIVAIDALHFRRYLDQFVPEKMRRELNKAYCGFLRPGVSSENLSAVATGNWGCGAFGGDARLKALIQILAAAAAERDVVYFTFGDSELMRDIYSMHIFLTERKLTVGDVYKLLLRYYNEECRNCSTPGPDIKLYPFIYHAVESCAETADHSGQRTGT

For `CC(C)C(=O)N1CCN(c2cc(S(=O)(=O)NC3(CF)CC3)cn3c(-c4nnc(C(F)F)s4)cnc23)CC1` [Example 14, 3-(5-(difluoromethyl)-1,3,4-thiadiazol-2-yl)-N-(1-(fluoromethyl)cyclopropyl)-8-(4-isobutyrylpiperazin-1-yl)imidazo[1,2-a]pyridine-6-sulfonamide], the IC50 (commonly the concentration at which inhibition is half-maximal) was 2.01 nM in test [1] (setting [2]); less than 100 nM in test [1] (setting [3]); less than 100 nM on PARG (setting [4]); 0.76 nM on PARG (PARG, TFMU-ADPr substrate).
For `N#CC1(NS(=O)(=O)c2ccc3c(C4CCC5(CNC5)C4)nc(-c4nnc(C(F)F)s4)n3c2)CC1` (stereo not drawn) [Example 26, N-(1-cyanocyclopropyl)-3-(5-(difluoromethyl)-1,3,4-thiadiazol-2-yl)-1-(2-azaspiro[3.4]octan-6-yl)imidazo[1,5-a]pyridine-6-sulfonamide], the IC50 in test [1] (setting [2]) was 4690 nM; in test [1] (setting [3]), greater than 1000 nM; on PARG (setting [4]) it was less than 100 nM; against PARG (PARG, TFMU-ADPr substrate) it was 5.37 nM.
Regarding `CC(C)C(=O)N1CCN(c2cc(S(=O)(=O)NC3(C#N)CC3)cc3c(-c4nnc(C(F)F)s4)cnn23)CC1` [Example 27, N-(1-cyanocyclopropyl)-3-(5-(difluoromethyl)-1,3,4-thiadiazol-2-yl)-7-(4-isobutyrylpiperazin-1-yl)pyrazolo[1,5-a]pyridine-5-sulfonamide], the IC50 in test [1] (HCC1806, 1 h, read-out: IC50 (nM) in cell function assay) is 100 to 500 nM; in test [1] (HCC1806, read-out: IC50 (nM) in cell function assay) it was 76.3 nM; at PARG (setting [4]), less than 100 nM; at PARG (PARG, TFMU-ADPr substrate), 4.98 nM.
For the molecule `CC(C)C(=O)N1CCN(c2cc(S(=O)(=O)NC3(CF)CC3)cn3c(-c4nnc(C(F)F)s4)ncc23)CC1` [Example 31, 3-(5-(difluoromethyl)-1,3,4-thiadiazol-2-yl)-N-(1-(fluoromethyl)cyclopropyl)-8-(4-isobutyrylpiperazin-1-yl)imidazo[1,5-a]pyridine-6-sulfonamide], the IC50 in test [1] (setting [2]) was 4.7 nM; in test [1] (setting [3]), less than 100 nM; at PARG (setting [4]), less than 100 nM; on PARG (PARG, TFMU-ADPr substrate) it was 0.84 nM.
As to `CC(C)C(=O)N1CCN(c2cc(S(=O)(=O)NC3(C(F)F)CC3)cn3c(-c4nnc(C(F)F)s4)ncc23)CC1` [Example 33, 3-(5-(difluoromethyl)-1,3,4-thiadiazol-2-yl)-N-(1-(difluoromethyl)cyclopropyl)-8-(4-isobutyrylpiperazin-1-yl)imidazo[1,5-a]pyridine-6-sulfonamide], the IC50 is 155 nM in test [1] (setting [2]); 100 to 500 nM in test [1] (setting [3]); less than 100 nM against PARG (setting [4]); 6.52 nM at PARG (PARG, TFMU-ADPr substrate).
Taken in the same sequence, the figures for `N#CC1(NS(=O)(=O)c2cc(N3CCC4(CC3)COC4)c3cnc(-c4nnc(C(F)F)s4)n3c2)CC1` [Example 39, N-(1-cyanocyclopropyl)-3-(5-(difluoromethyl)-1,3,4-thiadiazol-2-yl)-8-(2-oxa-7-azaspiro[3.5]nonan-7-yl)imidazo[1,5-a]pyridine-6-sulfonamide] were 13.2 nM, less than 100 nM, less than 100 nM and 2.72 nM.
On to `N#CC1(NS(=O)(=O)c2cc(N3CCC(F)(F)CC3)c3cnc(-c4nnc(C(F)F)s4)n3c2)CC1` [Example 40, N-(1-cyanocyclopropyl)-3-(5-(difluoromethyl)-1,3,4-thiadiazol-2-yl)-8-(4,4-difluoropiperidin-1-yl)imidazo[1,5-a]pyridine-6-sulfonamide], for which the IC50 in test [1] (setting [2]) is 309 nM; in test [1] (setting [3]), 100 to 500 nM; against PARG (setting [4]), less than 100 nM; on PARG (PARG, TFMU-ADPr substrate) it was 8.37 nM.
With `CC1(O)CC2(CCN(c3cc(S(=O)(=O)NC4(C#N)CC4)cn4c(-c5nnc(C(F)F)s5)ncc34)CC2)C1` [Example 53, N-(1-cyanocyclopropyl)-3-(5-(difluoromethyl)-1,3,4-thiadiazol-2-yl)-8-(2-hydroxy-2-methyl-7-azaspiro[3.5]nonan-7-yl)imidazo[1,5-a]pyridine-6-sulfonamide], the IC50 was 145 nM in test [1] (setting [2]); 100 to 500 nM in test [1] (setting [3]); less than 100 nM against PARG (setting [4]); 2.37 nM against PARG (PARG, TFMU-ADPr substrate).
Take `C[C@@H]1CN(c2cc(S(=O)(=O)NC3(C#N)CC3)cn3c(-c4nnc(C(F)F)s4)ncc23)CCN1C(=O)C1(C)CC1` [Example 62, (R)-N-(1-cyanocyclopropyl)-3-(5-(difluoromethyl)-1,3,4-thiadiazol-2-yl)-8-(3-methyl-4-(1-methylcyclopropane-1-carbonyl)piperazin-1-yl)imidazo[1,5-a]pyridine-6-sulfonamide]: the IC50 was 3.52 nM in test [1] (setting [2]); less than 100 nM in test [1] (setting [3]); less than 100 nM on PARG (setting [4]); 3.75 nM against PARG (PARG, TFMU-ADPr substrate).
For `C[C@H]1CN(c2cc(S(=O)(=O)NC3(C)COC3)cn3c(-c4nnc(C(F)F)s4)ncc23)C[C@H](C)N1C` [Example 400, 3-(5-(difluoromethyl)-1,3,4-thiadiazol-2-yl)-N-(3-methyloxetan-3-yl)-8-((3S,5S)-3,4,5-trimethylpiperazin-1-yl)imidazo[1,5-a]pyridine-6-sulfonamide], the IC50 in the test with HCC1806 (Homo sapiens, HCC1806, 168 h) came out at 267 nM; on PARG (PARG, TFMU-ADPr substrate) it was 6.31 nM.
Taken in the same sequence, the figures for `CC(=O)N1[C@@H](C)CN(c2cc(S(=O)(=O)NC3(C)COC3)cn3c(-c4nnc(C(F)F)s4)ncc23)C[C@@H]1C` [Example 401, 8-((3S,5S)-4-acetyl-3,5-dimethylpiperazin-1-yl)-3-(5-(difluoromethyl)-1,3,4-thiadiazol-2-yl)-N-(3-methyloxetan-3-yl)imidazo[1,5-a]pyridine-6-sulfonamide] were 2800 nM and 158 nM.
Taken in the same sequence, the figures for `C[C@H]1CN(c2cc(S(=O)(=O)NC3(C)COC3)cn3c(-c4nnc(C(F)F)s4)nc(Cl)c23)C[C@H](CO)N1` [Example 402, 1-chloro-3-(5-(difluoromethyl)-1,3,4-thiadiazol-2-yl)-8-((3R,5S)-3-(hydroxymethyl)-5-methylpiperazin-1-yl)-N-(3-methyloxetan-3-yl)imidazo[1,5-a]pyridine-6-sulfonamide] were 1840 nM and 20.9 nM.
Taken in the same sequence, the figures for `COC[C@H]1CN(c2cc(S(=O)(=O)NC3(C)COC3)cn3c(-c4nnc(C(F)F)s4)nc(Cl)c23)C[C@H](C)N1` [Example 403, 1-chloro-3-(5-(difluoromethyl)-1,3,4-thiadiazol-2-yl)-8-((3R,5S)-3-(methoxymethyl)-5-methylpiperazin-1-yl)-N-(3-methyloxetan-3-yl)imidazo[1,5-a]pyridine-6-sulfonamide] were 458 nM and 21.9 nM.
Take `COC[C@H]1CN(c2cc(S(=O)(=O)NC3(C)COC3)cn3c(-c4nnc(C(F)F)s4)ncc23)C[C@H](C)N1` [Example 404, 3-(5-(difluoromethyl)-1,3,4-thiadiazol-2-yl)-8-((3R,5S)-3-(methoxymethyl)-5-methylpiperazin-1-yl)-N-(3-methyloxetan-3-yl)imidazo[1,5-a]pyridine-6-sulfonamide]: the IC50 in the test with HCC1806 (Homo sapiens, HCC1806, 168 h) turned out to be 27 nM; on PARG (PARG, TFMU-ADPr substrate), 1.09 nM.
For “N-(1-cyanocyclopropyl)-8-(4-(oxetane-3-carbonyl)piperazin-1-yl)-3-(5-(trifluoromethyl)-1,3,4-thiadiazol-2-yl)imidazo[1,5-a]pyridine-6-sulfonamide [Example 294]”, the half-inhibitory concentration (IC50) with HCC1806 was found to be 110 nM; against PARG (PARG, TFMU-ADPr substrate) it was 12 nM.
